# What was measured:
# [1] = system: mice with paclitaxel-induced neuropathic pain (CIPN); assay: von Frey paw withdrawal threshold (mechanical allodynia), paclitaxel-induced CIPN / central sensitization, treatment of established pain, topical test compounds; format: in vivo, mouse; conditions: paclitaxel mice; PS hydrogel 5%, sulindac 0.7% topical hind paws 3x/day from day 0; lidocaine 5% cream once 30 min before; pregabalin 10 mg/kg oral once 1 h before; day 14
# Description: Paw withdrawn, licking or shaking were considered positive responses.
# (§1) The first doses were administered 5 days after the last administration of paclitaxel (i.e., at day 0).
# The PWT test was performed prior to the administration of paclitaxel (day −8) to establish the threshold in mice without neuropathic pain associated with CIPN (the value shown is an average of the PWT in all groups at day −8).
# Pain associated with CIPN was established in line with the experiments disclosed herein. Mice were treated with naproxen 2.4% (equimolar to PN 5%), aspirin 1.7% (equimolar to PA2 5%); or ibuprofen 2.5% (equimolar to PI 5%) or vehicle applied topically to both hind paws 3×/day for 14 days.
# CIPN was induced in mice with chemotherapeutic agents using established protocols (Carozzi et al, 2010; Currie et al, 2019; Eldridge et al, 2020).
# The first doses were administered 1 day after the last administration of paclitaxel (i.e., at day 0).
# as §1
# The PWT test was performed on day 21, at the end of the experiment, but was also additionally determined on day 14 for LXIX.
# [2] = system: mice with paclitaxel-induced CIPN; assay: thermal allodynia (paw withdrawal latency, radiant heat), paclitaxel CIPN model; format: in vivo, mouse; conditions: oral PS 50 mg/kg, sulindac 33 mg/kg 3x/day, day 16 of treatment
# Description: Group 3: paclitaxel pluse sulindac (n=8)
# Thermal allodynia was also determined for the mice study groups below (with 8 mice per group): • 1. Group 1: naïve mice (i.e. no paclitaxel) • 2. Group 2: paclitaxel only • 3. Group 3: paclitaxel plus vehicle • 4. Group 4: paclitaxel plus NO-sulindace • 5. Group 5: paclitaxel plus thiol-sulindac
# STZ-diabetic rats = format: in vivo, rat; conditions: PS 8% hydrogel, sulindac 0.7% hydrogel 3x/day day −2 to 28; lidocaine cream 5% once 30 min before; STZ day 0; day 28
# From the text: The animal model corresponds to that used for Example 4, but using a prevention protocol. As in Example 4, the outcome measure, determining the effect of the treatment on the prevention of mechanical allodynia, was the PWT test, using von Frey filaments. The measurements were taken at day −3, before treatment or induction of neuropathic pain associated with DPN, and again at the end of the study period (day 28).
# The rats were randomised into treatment groups as follows, all having an average body weight of about 225 g. • 1. Group 1: naïve rats (n=6) • 2. Group 2: STZ only (n=8) • 3. Group 3: STZ plus vehicle (n=8) • 4. […] Group 5: STZ plus sulindac 0.7% (n=8) • 6. Group 6: STZ plus lidocaine cream 5% (n=8)
# Each treatment group was subjected to a PWT assessment at day −3 in order to determine the baseline of mechanical allodynia.
# For those rats in the lidocaine treatment group, lidocaine cream was applied only once to both hind paws of the rats 30 min before the final PWT measurement on day 28. On day 0, neuropathic pain associated with DPN was induced with the administration of STZ, and the blood glucose was checked on day 3.
# [3] = system: mice with chronic constriction injury of the left sciatic nerve (PTPN); assay: von Frey PWT, chronic constriction injury (CCI) model of PTPN, topical compounds; format: in vivo, mouse; conditions: PS 5% gel, sulindac 0.7% gel on left paw 3x/day 14 days; pregabalin (10 mg/ml) oral gavage once 1 h before; day 14
# Description: The PWT test was performed following ligation, but prior to treatment to determine baseline values. The PWT was then further measured on day 14.
# [4] = system: mice with chronic constriction injury (PTPN); assay: von Frey PWT, CCI model of PTPN, orally administered compounds; format: in vivo, mouse; conditions: oral once a day: PS 50, PSA 50, sulindac 33 mg/kg
# Description: Phospho-ibuprofen (PI) (Formula III), phospho-ibuprofen-amide (PIA) (Formula XI), ibuprofen and vehicle control were all administered orally, three times a day for 14 days. Their doses were as follows: PI 80 mg/kg, PIA 80 mg/kg, ibuprofen 40 mg/kg (all three are equimolar). […] Group 1: vehicle (n=5-8) • 2. Group 2: ibuprofen (n=5-8) • 3. Group 3: phospho-ibuprofen (PI) (n=5-8) • 4. Group 4: phospho-ibuprofen-amide (PIA) (n=5-8)
# [5] = system: mice with NTG-induced migraine; assay: von Frey PWT, NTG-induced migraine model, oral or intraperitoneal compounds; format: in vivo, mouse; conditions: oral 30 min after NTG: PS 50, sulindac 33, PN 65, naproxen 35 mg/kg; 30 min after administration
# Description: Phosphonaproxen (Formula VIII), and its parent compound, naproxen, were administered orally to each mouse group. All compounds were administered at equimolar doses. In particular, phosponaproxen was administered at 65 mg/kg, and naproxen was administered at 35 mg/kg, 30 minutes after NTG administration. The response of mechanical allodynia was tested 30 minutes after administration.
# [6] = system: mice with NTG-induced chronic migraine; assay: von Frey PWT, NTG-induced chronic migraine model; format: in vivo, mouse
# From the text: The NTG-induced chronic migraine model was used as described previously.
# [7] = system: BALB/c mice infected with HSV-1 KOS strain (PHN); format: in vivo, mouse; conditions: second experiment; sulindac 5% gel on both hind paws 3x/day for three days
# Description: PHN was induced in mice by infecting them with the HSV-1 KOS strain virus and following established protocols (Ou et al, Front Immunol, 14, 1026269, 2023; Takasaki et al, Anesthesiology, 96 (5), 1168-74, 2002).
# ; Reckitt Benckiser). Three days later, HSV-1 (10^6 PFUs in 20 μl PBS) was inoculated on the shin of the right hind paw (5×5 mm) after scarification with sandpaper. The virus was applied directly to the scarified area. The contralateral hind paw was without inoculation. Mock infection was performed using the same virus inactivated by heating at 60° C. for 1 h.
# In a second experiment, the effect of the parent compound, sulindac, was tested in the same mouse model. Five days post-inoculation, sulindac (as a 5% gel), or vehicle control were administered topically onto both hind paws of mice three times a day for three days.
# PHN was induced in mice by infecting them with the HSV-1 KOS strain virus in line with the previous Examples.
# Five days post-inoculation, NO-sulindac (Formula XLIV) (as a 5% gel), or vehicle control were administered topically onto both hind paws of mice three times a day for three days.
# [8] = format: in vivo, mouse; conditions: all tissues except the sciatic nerve (higher) and DRG (equal)
# Description: At 0.5, 1, 3, 5, 12, 18, and 24 h, mice (n=4-5 mice/time point) were euthanized with CO2 inhalation. Blood was drawn immediately after death. Tissues, including paw skin, paw muscle, leg muscle, the sciatic nerve and lumbar DRG bilaterally were dissected quickly, immediately frozen in liquid nitrogen and stored at −80° C. until analyzed.
smiles,measurement,setting,value
"CC1=C(CC(=O)O)c2cc(F)ccc2/C1=C\c1ccc([S+](C)[O-])cc1 (centres unmarked) [sulindac, reference compound]","PWT, g Mean ± SEM",[1],0.62 ± 0.05 g
same,"PWL, sec Mean ± SEM",[2],7.87 ± 0.7 s
same,"von Frey, gm mean ± SEM",STZ-diabetic rats,27.7 ± 1.4 gm
same,"PWT, g Mean ± SEM",[3],0.63 ± 0.07 g
same,"PWT, g Mean ± SEM",[4]; Day 6,Day 6 = 0.6 ± 0.03 g
same,"PWT, g Mean ± SEM",[4]; Day 14,Day 14 = 0.6 ± 0.0 g
same,"PWT, g Mean ± SEM",[5],0.60 ± 0.04 g
same,"PWT, g Mean ± SEM, Day 11","[6]; NTG 0.4 mg sublingual every two days x5, oral once a day 11 days: PS 50, sulindac 33 mg/kg, 30 min after administration",0.43 ± 0.03 g
same,"PWT, g Mean ± SEM, Baseline",[6]; group baseline prior to NTG administration,1.80 ± 0.12 g
same,"PWT, g Mean ± SEM, Post-inoculation and treatment",[7],0.56 ± 0.06 g
same,sulindac levels as % of those of PS,[8],around 25%

# — patent publication US20260102413A1, “TREATING PAIN ASSOCIATED WITH CENTRAL SENSITIZATION” (Medicon Pharmaceuticals, Inc., priority 2022, published 2026)
